Results reported in patent publication US20120226031A1, “PALMARUMYCIN BASED INHIBITORS OF THIOREDOXIN AND METHODS OF USING SAME” (ARIZONA BOARD OF REGENTS, ACTING ON BEHALF OF THE …, priority 2005, published 2012).

Legend:
[1] = target: T1, human glutathione reductase (Homo sapiens, UniProt P00390); assay: Inhibition of human glutathione reductase (selectivity); assay type: biochemical
T1 sequence (P00390 45-522 limits assumed): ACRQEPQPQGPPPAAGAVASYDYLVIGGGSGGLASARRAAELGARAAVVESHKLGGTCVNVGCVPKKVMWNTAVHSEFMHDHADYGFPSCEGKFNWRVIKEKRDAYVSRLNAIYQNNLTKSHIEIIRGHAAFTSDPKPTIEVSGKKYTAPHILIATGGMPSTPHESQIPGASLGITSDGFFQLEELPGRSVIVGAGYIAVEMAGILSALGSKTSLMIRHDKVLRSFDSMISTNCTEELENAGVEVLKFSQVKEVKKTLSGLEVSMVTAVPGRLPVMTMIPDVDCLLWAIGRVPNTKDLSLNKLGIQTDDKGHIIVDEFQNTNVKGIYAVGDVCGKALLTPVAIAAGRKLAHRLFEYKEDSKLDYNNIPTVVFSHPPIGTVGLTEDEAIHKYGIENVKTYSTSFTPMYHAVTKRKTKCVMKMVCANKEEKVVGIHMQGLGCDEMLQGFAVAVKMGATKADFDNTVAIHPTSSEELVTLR
Method: Based upon the observation that PX-916 was rapidly converted to PX-960 in aqueous solution, the ability of PX-960 to inhibit purified human TR was measured and found to be similar to that of PX-916 (Table 2). PX-916 was a selective inhibitor of human TR compared to two other NADPH dependent reductases with a selectivity of at least 200 for human glutathione reductase and human cytochrome P-450 reductase (Table 3).

[2] = system: MCF-7 human breast cancer xenografts; assay: Antitumor activity, MCF-7 breast cancer xenograft; assay type: in vivo, mouse
Method: FIG. 4. Antitumor activity of PX-916. A. Female beige nude mice were inoculated subcutaneously (s.c.) with 10^7 A-673 rhabdomyosarcoma cells. When tumors were 100 mm^3 on day 8 (arrow) dosing was begun with (∘) vehicle alone; (▴) PX-916 10 mg/kg intraperitoneally (i.p.) daily for 4 doses. B. Female scid mice were inoculated s.c. with 10^7 SHP-77 human small cell lung cancer cells. When tumors were 130 mm^3 on day 17 (arrow) dosing was begun with (∘) vehicle alone; (▪) PX-916 10 mg/kg i.v. daily for 8 doses; (▴) PX-916 25 mg/kg i.v. daily for 5 doses. C. Female scid mice implanted 1 day previously with a 17-β-estradiol 60 day slow release pellet were inoculated s.c. with 10^7 MCF-7 human breast cancer cells. […] In both A and B values are the mean of 8 mice per group and bars are SE.
A single intravenous (i.v.) dose of PX-916 of 25 mg/kg inhibited MCF-7 human tumor xenograft TR up to about 60% at 24 hr and the inhibition was maintained for at least 48 hr (FIG. 3C). […] In this study 3 of eight nice had no histologically detectable tumor when the study was terminated on day 42.

HIF-1α = assay: Tumor HIF-1α immunohistochemistry in MCF-7 xenografts; assay type: in vivo, mouse; conditions: five daily doses of 25 mg/kg, 24 hours after last dose
Method: FIG. 5. Inhibition of tumor HIF-1α, VEGF and thioredoxin reductase by repeated administration of PX-916. Female scid mice were implanted 1d previously with a 90-d 17β-estradiol slow release pellet were inoculated s.c. with 10^7 MCF-7 human breast cancer cells. When the tumors were 300 mm^3, vehicle or 25 mg/kg/d PX-916 was given i.v. for five doses. Twenty four hours later, the tumors were removed and stained by immunohistochemistry for HIF-1α and VEGF (A) or assayed for thioredoxin reductase activity (B). Columns mean of four mice, SE. P≦0.05.
Levels of the HIF-1α transcription factor and its downstream target VEGF are increased by thioredoxin-1 expression. We examined the effect of PX-916 administration on tumor HIF-1α and VEGF levels (FIG. 5A). Twenty-four hours after the last dose of five daily doses of PX-916 of 25 mg/kg, there was a decrease in MCF-7 xenograft staining for both HIF-1α and VEGF. At the same time, levels of tumor thioredoxin reductase activity were decreased by 75% (FIG. 5B).

[3] = Stability in fresh mouse plasma at room temperature; assay type: in vitro ADME
Method: (§1) Two metabolite peaks could be seen at 5 minutes, but were undetectable by 30 minutes.

[4] = Plasma levels in mice after i.v. administration; assay type: in vivo, mouse; set-up: dose or concentration left out as unconfirmed; conditions: PX-916 i.v. to mice, 5 minutes after administration
Method: as §1

[5] = 27.5 mg/kg i.v. every other day for 5 doses

NCC(=O)Oc1ccc2c3c(cccc13)OC1(C=CC(=O)c3c(O)cccc31)O2 (centres unmarked) [PX-916, O-glycyl naphthoquinone spiroketal]
concentration increase needed to inhibit glutathione reductase [1]: greater than 100 fold
selectivity for human TR vs human glutathione reductase [1]: at least 200
Selectivity for TR vs glutathione reductase ([1]; Table 3): >200
IC50 ([1]; Table 3, read-out: Inhibition IC50, glutathione reductase (red blood cell)): > 50 µM
tumor growth inhibition ([2]; 27.5 mg/kg i.v. daily for 5 doses): 52%
tumor growth rate ([2]; 27.5 mg/kg i.v. daily for 5 doses, 5 days after end of dosing): 22±4 mm^3/day
tumor growth inhibition [2, 5]: 52%
tumor growth rate [2, 5]: 22±8 mm^3/day
tumor growth inhibition ([2]; 27.5 mg/kg orally for 5 doses): 62%
tumor growth rate ([2]; 27.5 mg/kg orally for 5 doses): 18.5±8 mm^3/day
antitumor activity following oral administration ([2]; oral, at doses that gave i.v. antitumor activity): Significant antitumor activity was not seen
MCF-7 xenograft staining for HIF-1α (HIF-1α): decrease
half-life [3]: < 2 min
detection of PX-916 in plasma [4]: could not be detected
